As a reminder, the Ki is the dissociation constant of the complex between target and ligand, obtained from inhibition or displacement.

Results on 18 molecules are retold here after patent US20060074243A1, “Hydroxamic acid and amide compounds and their use as protease inhibitors” (Pharmacia Corporation, priority 2002, published 2006).

Assay in all cases: In vitro MMP inhibition analysis (fluorogenic peptide substrate cleavage), Ki
Format in all cases: biochemical
Holding throughout (conditions): Table 2

One assay addresses T1, Human recombinant MMP-13 (Homo sapiens, UniProt P45452).
T1 construct: made in house; host or cells: baculovirus / insect cells
Summed up:
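Baculovirus-expressed full-length MMP-13 proenzyme was purified on heparin-agarose and zinc-chelate columns, then APMA-activated. It cleaved 4 μM MCA/Dpa fluorogenic peptide in 100 mM Tris-HCl, 100 mM NaCl, 10 mM CaCl2, 0.05% Brij-23, pH 7.5, for 1 h at room temperature (ex 330/em 420 nm). Ki came from Morrison-equation fits with substrate ≤Km, uncorrected.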

For another assay, the target named is T2, Human recombinant MMP-1 (Homo sapiens, UniProt P03956).
T2 construct: made in house; host or cells: MMP-1-transfected HT-1080 cells (spent media)
T2 sequence (P03956 100-469): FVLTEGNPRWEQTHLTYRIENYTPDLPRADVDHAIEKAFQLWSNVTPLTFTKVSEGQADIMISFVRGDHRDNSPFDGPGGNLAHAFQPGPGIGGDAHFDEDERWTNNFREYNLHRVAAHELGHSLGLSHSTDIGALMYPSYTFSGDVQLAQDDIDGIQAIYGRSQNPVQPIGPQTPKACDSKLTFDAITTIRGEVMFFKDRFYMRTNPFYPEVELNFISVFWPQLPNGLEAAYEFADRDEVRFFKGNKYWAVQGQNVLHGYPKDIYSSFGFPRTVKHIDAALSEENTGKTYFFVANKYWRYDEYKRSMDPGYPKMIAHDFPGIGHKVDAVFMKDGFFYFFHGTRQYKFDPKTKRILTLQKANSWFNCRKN
In short, it runs like this:
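APMA- or trypsin-activated recombinant human MMP-1 (purified from transfected HT-1080 medium) with 4 μM MCA/Dpa quenched fluorogenic peptide, 1 h at room temperature in Tris/NaCl/CaCl2 buffer pH 7.5; fluorescence ex 330/em 420 nm. Ki from Morrison-equation fit of rates, substrate at or below Km, uncorrected.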

In the next assay the target is T3, Human recombinant MMP-9 (Homo sapiens, UniProt P14780).
T3 construct: made in house; host or cells: MMP-9-transfected HT1080 cells (spent media)
T3 sequence (P14780 107-707 limits assumed): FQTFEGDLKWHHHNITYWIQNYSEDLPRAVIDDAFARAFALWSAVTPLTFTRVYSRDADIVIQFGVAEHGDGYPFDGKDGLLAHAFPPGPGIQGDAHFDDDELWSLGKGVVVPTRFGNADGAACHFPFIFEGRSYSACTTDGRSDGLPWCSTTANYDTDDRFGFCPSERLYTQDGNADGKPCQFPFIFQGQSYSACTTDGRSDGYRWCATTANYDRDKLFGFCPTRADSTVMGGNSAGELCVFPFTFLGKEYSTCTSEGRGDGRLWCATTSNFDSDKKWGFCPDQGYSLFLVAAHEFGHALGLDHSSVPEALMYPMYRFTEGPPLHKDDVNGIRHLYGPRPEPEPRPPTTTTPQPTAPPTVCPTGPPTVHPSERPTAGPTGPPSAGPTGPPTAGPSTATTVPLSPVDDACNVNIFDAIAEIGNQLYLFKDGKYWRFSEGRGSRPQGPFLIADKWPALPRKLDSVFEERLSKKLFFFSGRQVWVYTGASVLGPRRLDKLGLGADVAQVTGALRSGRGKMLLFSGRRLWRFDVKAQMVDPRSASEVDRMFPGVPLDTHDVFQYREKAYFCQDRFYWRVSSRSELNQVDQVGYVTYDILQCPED
Summed up: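 Recombinant MMP-9 purified from transfected HT1080 cell media, activated with APMA, trypsin or recombinant MMP-3, assayed in Tris buffer pH 7.5 with CaCl2 and 4 μM fluorogenic MCA/Dpa peptide, 1 h at room temperature (ex 330/em 420 nm). Ki from Morrison-equation regression of velocity; substrate at or below Km, uncorrected.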

Regarding `CC(C)CCNC(=O)c1cnc(-c2ccc(S(=O)(=O)C3(C(=O)NO)CCOCC3)cc2)cn1` [Example 185], the Ki at Human recombinant MMP-13 turned out to be 0.19 nM; on Human recombinant MMP-1, 501 nM; on Human recombinant MMP-9, 13.5 nM.

Consider `CC[C@@H](C)NC(=O)c1ccc(-c2ccc(S(=O)(=O)C3(C(=O)NO)CCOCC3)cc2)nc1` [Example 207], for which the Ki on Human recombinant MMP-13 amounted to 0.729 nM; at Human recombinant MMP-1 it was 1380 nM; at Human recombinant MMP-9 it was 78 nM.

For the molecule `O=C(CCc1nccs1)c1ccc(-c2ccc(S(=O)(=O)C3(C(=O)NO)CCOCC3)cc2)cc1` [Example 211], the inhibition constant (Ki) on Human recombinant MMP-13 is 0.056 nM; on Human recombinant MMP-1, 975 nM; on Human recombinant MMP-9, 9.78 nM.

Regarding `CC(C)COc1cnc(-c2ccc(S(=O)(=O)C3(C(=O)NO)CCOCC3)cc2)cn1` [Example 170], the Ki amounted to 0.08 nM at Human recombinant MMP-13, 693 nM on Human recombinant MMP-1 and 0.08 nM at Human recombinant MMP-9.

Turning to `O=C(NO)C1(S(=O)(=O)c2ccc(-c3cnc(CCCC(F)(F)F)cn3)cc2)CCN(C2CC2)CC1` [Example 218], the Ki on Human recombinant MMP-13 was 0.267 nM; on Human recombinant MMP-1 it was more than 10000 nM; on Human recombinant MMP-9, 0.938 nM.

Take `CCCCc1ccc(-c2ccc(S(=O)(=O)C3(C(=O)NO)CCOCC3)cc2)nc1` [Example 89]: the Ki stood at 0.0332 nM at Human recombinant MMP-13, 2260 nM on Human recombinant MMP-1 and 0.0528 nM at Human recombinant MMP-9.

With `CC(C)CCc1cnc(-c2ccc(S(=O)(=O)C3(C(=O)NO)CCOCC3)cc2)cn1` [Example 169], the Ki at Human recombinant MMP-13 was 0.24 nM; on Human recombinant MMP-1, more than 10000 nM; on Human recombinant MMP-9, 0.59 nM.

Turning to `O=C(NO)C1(S(=O)(=O)c2ccc(-c3cnc4ccccc4n3)cc2)CCOCC1` [Example 194], the Ki at Human recombinant MMP-13 was 319 nM; on Human recombinant MMP-1, more than 10000 nM; at Human recombinant MMP-9 it was 1260 nM.

Take `O=C(NO)C1(S(=O)(=O)c2ccc(-c3nc4ccccc4s3)cc2)CCOCC1` [Example 195]: the Ki was 7.2 nM on Human recombinant MMP-13, more than 10000 nM at Human recombinant MMP-1 and 32.2 nM on Human recombinant MMP-9.

For the molecule `CCCCOc1ccc(-c2ccc(S(=O)(=O)C3(C(=O)NO)CCOCC3)cc2)cc1` [Example 77], the values for the Ki at Human recombinant MMP-13, on Human recombinant MMP-1 and on Human recombinant MMP-9 were 0.0485 nM, 1290 nM and 0.398 nM, respectively.

As for `O=C(NO)C1(S(=O)(=O)c2ccc(-c3ccc(CCC(F)(F)F)cn3)cc2)CCOCC1` [Example 176], the Ki on Human recombinant MMP-13 amounted to 0.02 nM; at Human recombinant MMP-1, 1200 nM; at Human recombinant MMP-9, 0.04 nM.

On to `O=C(NO)C1(S(=O)(=O)c2ccc(-c3ccc(CCCC(F)(F)F)cn3)cc2)CC=CC1` [Example 202], for which the Ki at Human recombinant MMP-13 came out at 0.076 nM; at Human recombinant MMP-1, 4060 nM; on Human recombinant MMP-9 it was 0.578 nM.

In the case of `CC(C)CNC(=O)c1cnc(-c2ccc(S(=O)(=O)C3(C(=O)NO)CCOCC3)cc2)cn1` [Example 186], the Ki on Human recombinant MMP-13 was 0.55 nM; at Human recombinant MMP-1 it was 1100 nM; on Human recombinant MMP-9, 21.7 nM.

As for `CC(C)(C)NC(=O)c1ccc(-c2ccc(S(=O)(=O)C3(C(=O)NO)CCOCC3)cc2)nc1` [Example 205], the Ki was 1.19 nM at Human recombinant MMP-13, 1070 nM on Human recombinant MMP-1 and 21.8 nM at Human recombinant MMP-9.

In the case of `CCCCOc1ccc(-c2ccc(S(=O)(=O)C3(C(=O)NO)CCOCC3)cc2)cc1C(F)(F)F` [Example 78], the Ki was 16.6 nM at Human recombinant MMP-13, more than 10000 nM at Human recombinant MMP-1 and 132 nM at Human recombinant MMP-9.

With `O=C(Cc1ccc(-c2ccc(S(=O)(=O)C3(C(=O)NO)CCOCC3)cc2)nc1)N1CCCCC1` [Example 212], the figures for the Ki at Human recombinant MMP-13, on Human recombinant MMP-1 and on Human recombinant MMP-9 were 0.679 nM, more than 10000 nM and 437 nM, respectively.

With `COc1ccc(Cc2cnc(-c3ccc(S(=O)(=O)C4(C(=O)NO)CCOCC4)cc3)cn2)cc1` [Example 182], the Ki on Human recombinant MMP-13 is 7.07 nM; on Human recombinant MMP-1, more than 10000 nM; at Human recombinant MMP-9 it was 246 nM.

For `O=C(NCC1CC1)c1ccc2cc(-c3ccc(S(=O)(=O)C4(C(=O)NO)CCOCC4)cc3)ccc2c1` [Example 220], the figures for the Ki on Human recombinant MMP-13, on Human recombinant MMP-1 and on Human recombinant MMP-9 were 0.259 nM, 251 nM and 50.5 nM, respectively.
